Blank lines part the entries; values can stand above or below the compound they belong to.
Assays:
Echinochloa phyllopogon = assay: Weed control effect evaluation in rice fields; type: in vivo; settings: activity level, 0.5-leaf stage, flooded pot, 14th day, weed resistant to pyrazosulfuron
Source text: (§1) After rice field soil was loaded into a 1/1,000,000 ha pot, the seeds of Echinochloa crusgalli, Echinochloa phyllopogon, Monochoria vaginalis, Leptochloa chinensis, and Ludwigia prostrata were sowed and gently covered with soil, then left to stand in a greenhouse with water storage of 0.5-1 cm deep. The tuber of Sagittaria trifolia was planted in the next day or 2 days later. The water storage was kept at a depth of 3-4 cm thereafter. When the Echinochloa crusgalli, Echinochloa phyllopogon, and Leptochloa chinensis reached their 0.5-leaf stages and the Sagittaria trifolia reached the time point of the primary leaf stage, WP or SC aqueous dilutions of the compounds of the present invention formulated according to common formulation methods were homogeneously dripped to the specified effective amount using pipettes for treatment.

Echinochloa crusgalli = assay: Weed control effect evaluation in rice fields; type: in vivo; settings: activity level, 0.5-leaf stage, flooded pot, 14th day, weed resistant to pyrazosulfuron
Source text: as §1

[1] = tested on: Echinochloa crus-galli var. austrojaponensis; assay: Activity test of compositions, early post-emergence foliage spray (F-EP); type: in vivo; settings: fresh weight inhibition rate 21 days after treatment
Method: (§2) The required active ingredient B was purchased from a reagent company or synthesized by a known method. The technical materials were all dissolved with acetone solvents and diluted with an aqueous solution of 0.1% Tween 80 emulsifier, which were to be used immediately after dilution.
(§3) Weeds were cultivated by a pot culture method. […] Weed seeds with plump and uniform grains were selected, soaked in lukewarm water at 25° C. for 6 hours, and accelerated to germinate in a 28° C. biochemical incubator (in darkness). The weed seeds that had just germinated were evenly placed on the surface of the soil and then covered with 0.5-1 cm soil according to the sizes of seeds.
(§4) The culture was carried out in a controllable sunlight greenhouse at 20 to 30° C., in natural light, and with relative humidity of 57% to 72%.
(§5) Each treatment was repeated 4 times. Four pots with 20 weed seeds sowed per pot were treated each time.
(§6) The agents were used once in total in the experiment. In the stage of 1-2 leaves, the weeds were thinned out to maintain 10 strains per treatment for later use.
(§7) The well-cultured test materials were evenly placed on a platform with an area of 0.5 m^2, and foliage spraying was carried out by the 3WP-2000-type walking spray tower at a dosage of 450 kg/ha and a spray pressure of 0.3 MPa. After all the solution was sprayed, the air valve was closed, and 30 seconds later, the door of the spray tower was opened, and the nutritional bowl was taken out. Then the air valve was opened, and the spray tube was cleaned by spraying 50 ml of water. The test materials were transferred to and routinely cultured in a greenhouse after the treatment.
(§8) A method for investigating absolute numbers was employed. Whole seedlings of survival weeds were cut off with a blade along the soil surface, and the fresh weight of the weeds was weighed using an analytical balance. For dead weeds, the fresh weight thereof was zero.
(§9) The investigation was performed 21 days after the treatment for once in total.
(§10) The theoretical fresh weight inhibition rate of a mixed combination of each treatment was calculated by the Gowing method (E0=X+Y−X*Y/100). […] An optimal ratio was determined according to the actual control effects, characteristics of herbicides, and balance of the formulation. In the formula, X represents the fresh weight inhibition rate of the active ingredient A in a dosage of P; Y represents the fresh weight inhibition rate of the active ingredient B in a dosage of Q. The statistical results are shown in Table 4.

Soliva anthemifolia = assay: as above; type: in vivo; settings: A alone 60 g a.i./ha, fresh weight inhibition rate 21 days after treatment
Method: as §2, §3, §4, §5, §6, §7, §8, §9, §10

Echinochloa glabrescens [2] = assay: as above; type: in vivo; settings: A alone 30 g a.i./ha, fresh weight inhibition rate 21 days after treatment
Method: as §2, §3, §4, §5, §6, §7, §8, §9, §10

Cyperus glomeratus [3] = assay: as above; type: in vivo; settings: A alone 30 g a.i./ha, fresh weight inhibition rate 21 days after treatment
Method: as §2, §3, §4, §5, §6, §7, §8, §9, §10

Beckmannia syzigachne = assay: Pre-emergence test experiment; type: in vivo; settings: activity level, sprayed after sowing, 4 weeks
Source text: (§11) Monocotyledonous and dicotyledonous weed seeds as well as major crop seeds (wheat, corn, rice, soybean, peanut, cotton, oilseed rape, millet, and sorghum) were placed in plastic pots filled with soil, and then covered with 0.5-2 cm of soil. The test compounds of the present invention were individually dissolved with acetone, then added with Tween 80, diluted with a certain amount of water to obtain a solution of a certain concentration, and sprayed immediately after sowing. After drug application, cultivation was conducted for 4 weeks in a greenhouse and then the experimental results were observed.

Setaria viridis = assay: Pre-emergence test experiment; type: in vivo; settings: activity level, sprayed after sowing, 4 weeks
Source text: as §11

Rice = settings: japonica, in vivo, 7 days
Method: In addition, after being loaded into the 1/1,000,000 ha pot, the rice field soil was leveled to keep the water storage at a depth of 2-3 cm. The rice (japonica rice) at 3-leaf stage was transplanted at a transplanting depth of 2-3 cm the next day. The compounds of the present invention were treated in the same manner as above on the 3rd day after the transplantation.
The effects were evaluated according to the above-mentioned activity level criteria.

Corn = settings: in vivo, 4 weeks
Source text: as §11

Cotton = settings: in vivo, 4 weeks
Source text: as §11

Peanut = settings: in vivo, 4 weeks
Source text: as §11

Soybean = settings: in vivo, 4 weeks
Source text: as §11

Digitaria ischaemum = assay: Activity test of compositions, soil sealing treatment (S); type: in vivo; settings: A alone 60 g a.i./ha, fresh weight inhibition rate 21 days after treatment
Source text: as §2
The test soil was quantitatively filled to 3/4 of the pot, and then watered from the bottom of the pot to completely wet the soil to saturation. The test weed seeds were accelerated to just germinate, and then evenly and quantitatively sowed on the soil surface, covered with 0.5-1 cm soil according to the sizes of the seeds, and ready for use 72 hours after sowing.
as §5
as §7, with “well-sowed” for “well-cultured”, “water.” for “water. The test materials were transferred to and routinely cultured in a greenhouse after the treatment.”
as §8, §9, §10

Echinochloa glabrescens [4] = assay: as above; type: in vivo; settings: A alone 30 g a.i./ha, fresh weight inhibition rate 21 days after treatment
Method: as §2
(§12) Weeds were cultivated in a controllable sunlight greenhouse at 20 to 30° C., in natural light, and with relative humidity of 57% to 72%. […] The test soil was quantitatively filled to 3/4 of the pot, and then watered from the bottom of the pot to completely wet the soil to saturation. The test weed seeds were accelerated to just germinate, and then evenly and quantitatively sowed on the soil surface, covered with 0.5-1 cm soil according to the sizes of the seeds, and ready for use 72 hours after sowing.
as §5
as §7, with “well-sowed” for “well-cultured”, “water.” for “water. The test materials were transferred to and routinely cultured in a greenhouse after the treatment.”
as §8, §9, §10

Cyperus glomeratus [5] = assay: as above; type: in vivo; settings: A alone 30 g a.i./ha, fresh weight inhibition rate 21 days after treatment
Method: as §2, §12, §5
as §7, with “well-sowed” for “well-cultured”, “water.” for “water. The test materials were transferred to and routinely cultured in a greenhouse after the treatment.”
as §8, §9, §10

Oxybasis glauca = assay: as above; type: in vivo; settings: A alone 60 g a.i./ha, fresh weight inhibition rate 21 days after treatment
Method: as §2, §12, §5
as §7, with “well-sowed” for “well-cultured”, “water.” for “water. The test materials were transferred to and routinely cultured in a greenhouse after the treatment.”
as §8, §9, §10

Arivela viscosa = assay: as above; type: in vivo; settings: A alone 60 g a.i./ha, fresh weight inhibition rate 21 days after treatment
Method: as §2, §12, §5
as §7, with “well-sowed” for “well-cultured”, “water.” for “water. The test materials were transferred to and routinely cultured in a greenhouse after the treatment.”
as §8, §9, §10

Lolium perenne = assay: Pre-emergence test experiment; type: in vivo; settings: activity level (fresh weight growth control rate), sprayed after sowing, 4 weeks
Source text: as §11

Wheat = settings: in vivo
Source text: as §11

Direct sowing rice = settings: in vivo, 7 days
Method: To simulate a field of direct sowing rice, a 5-cm water layer was added to the container first, fully mixed with mud to form slurry, and then rice seeds were scattered in. After the slurry became clear, the water layer was removed. The soil was kept moist and applied with drug solution evenly by spraying. The soil was rehydrated to 3-cm deep 3-4 days after drug application.
The doses of the compounds used in the above-mentioned experiments were 3.75, 7.5, 15, 30, 60, and 120 g a.i./ha. […] The effects were evaluated according to the above-mentioned activity level criteria.

Rice 30 g a.i./ha (Rice): 0 | Corn 60 g a.i./ha (Corn): 0 | Cotton 60 g a.i./ha (Cotton): 0 | Peanut 60 g a.i./ha (Peanut): 0 | Soybean 60 g a.i./ha (Soybean): 0
Structure (SMILES): CC(C)C12CCC(C)(O1)C(OCc1c(F)cccc1Br)C2 (racemic) [Compound 1]
Echinochloa phyllopogon 7.5 g a.i./ha (Echinochloa phyllopogon): 9 | Echinochloa crusgalli 7.5 g a.i./ha (Echinochloa crusgalli): 9 | Control effect of A applied alone in a corresponding dose (%) ([1]; A alone 30 g a.i./ha): 38.4% | Control effect of A applied alone in a corresponding dose (%) ([1]; A alone 60 g a.i./ha): 52.7% | Control effect of A applied alone in a corresponding dose (%) (Soliva anthemifolia): 22.8% | Control effect of A applied alone in a corresponding dose (%) (Echinochloa glabrescens [2]): 48.7% | Control effect of A applied alone in a corresponding dose (%) (Cyperus glomeratus [3]): 51.5% | Beckmannia syzigachne 60 g a.i./ha (Beckmannia syzigachne): 9 | Setaria viridis 30 g a.i./ha (Setaria viridis): 9 | Control effect of A applied alone in a corresponding dose (%) (Digitaria ischaemum): 56.4% | Control effect of A applied alone in a corresponding dose (%) (Echinochloa glabrescens [4]): 58.3% | Control effect of A applied alone in a corresponding dose (%) (Cyperus glomeratus [5]): 56.1% | Control effect of A applied alone in a corresponding dose (%) (Oxybasis glauca): 19.8% | Control effect of A applied alone in a corresponding dose (%) (Arivela viscosa): 18.5%

Structure (SMILES): CC(C)C12CCC(C)(O1)C(OCc1ccccc1Br)C2 (centres unmarked) [Control compound A]
Lolium perenne 30 g a.i./ha (Lolium perenne): 1 (Level 1: growth control rate is less than 10%)

Rice 60 g a.i./ha (Rice): 9 | Direct sowing rice 60 g a.i./ha (Direct sowing rice): 9
Structure (SMILES): CC(C)C12CCC(C)(O1)C(OCc1c(F)cccc1Cl)C2 (centres unmarked) [Control compound C]
phytotoxicity to wheat (Wheat): unacceptable phytotoxicity

Source: US20260191194A1, “OXABICYCLOALKANE COMPOUNDS, PREPARATION METHOD THEREFOR, AND HERBICIDAL COMPOSITION AND USE THEREOF” (QINGDAO KINGAGROOT CHEMICAL COMPOUND CO., LTD., priority 2022, published 2026)
